Values belong to the compound of their own block, whether it stands above or below them.
Assay: solvent given as SMILES

- emission maximum (in ClCCl): 449 nm
SMILES: COC(=O)[C@H](Cc1ccccc1)Nc1c(C(C)=O)c(=O)oc2cc(N(C)C)ccc12

- emission maximum (in C1COCCO1): 630 nm
- emission maximum (in ClCCl): 736 nm
SMILES: CCCCN(CCCC)c1ccc(/C=C/c2ccc3nc(/C=C/c4nc5ccc(/C=C/c6ccc(N(CCCC)CCCC)cc6)cc5n(CCC)c4=O)c(=O)n(CCC)c3c2)cc1

- emission maximum (in ClC(Cl)Cl): 415 nm
SMILES: COc1ccc2cc(C#N)c3ccc4ccccc4c3c2c1

SMILES: CCCCCCc1ccc2c(/C=N/c3cc(/N=C/c4c(O)ccc5cc(CCCCCC)ccc45)cc(/N=C/c4c(O)ccc5cc(CCCCCC)ccc45)c3)c(O)ccc2c1
- emission maximum (in C1CCOC1): 509 nm
- emission maximum (in CC#N): 507 nm
- emission maximum (in Cc1ccccc1): 507 nm
- emission maximum (in ClCCl): 511 nm

- emission maximum (in CCCCCCCCCCCCCC): 481 nm
SMILES: CCCCCCCCCCc1cc(-c2cc(CCCCCCCCCC)c(-c3cccs3)s2)sc1-c1cccs1

- emission maximum (in ClC(Cl)Cl): 396 nm
SMILES: CC(C)(C)c1ccc2oc3nc4oc5cc(-n6c7ccccc7c7ccccc76)ccc5c4cc3c2c1

- emission maximum (in CC#N): 437 nm
SMILES: Cc1cc2nc3c(=O)[nH]c(=O)n(C)c3nc2cc1C

SMILES: CCOc1ccc(/C=C/C=C/C=C/c2ccc([N+](=O)[O-])cc2)cc1
- emission maximum (in CC1CCCCC1): 488 nm
- emission maximum (in CC#N): 740 nm
- emission maximum (in Cc1ccccc1): 541 nm
- emission maximum (in ClCCl): 694 nm

- emission maximum (in C1COCCO1): 555 nm
- emission maximum (in CC#N): 643 nm
- emission maximum (in ClCCl): 601 nm
SMILES: CN(C)c1ccc(/C=C/c2nc3cc(Br)ccc3nc2-c2ccccc2)cc1

- emission maximum (in CO): 773 nm
SMILES: O=C(O)CCCCCn1/c(=C/C=C/C2=[N+](CCCCCC(=O)O)c3cccc4cccc2c34)c2cccc3cccc1c32

- emission maximum (in ClCCl): 390 nm
SMILES: COc1ccc(C#Cc2ncc(-c3ccccc3)o2)cc1OC

SMILES: Cc1ccc(-c2cc(-c3ccccc3)c3c(N)nc(N4CCCC4)c(C#N)c3n2)cc1
- emission maximum (in CC#N): 528 nm
- emission maximum (in CC(C)=O): 524 nm
- emission maximum (in CC(C)O): 518 nm
- emission maximum (in CO): 527 nm
- emission maximum (in ClC(Cl)Cl): 510 nm
- emission maximum (in ClCCl): 517 nm
- emission maximum (in c1ccccc1): 504 nm

SMILES: CCCCC(CC)CN1C(=O)c2cc(Oc3ccc(C(C)(C)C)cc3)c3c4c(Cl)cc5c6c(cc(Cl)c(c7c(Oc8ccc(C(C)(C)C)cc8)cc(c2c37)C1=O)c64)C(=O)N(c1c(C(C)C)cccc1C(C)C)C5=O (configuration not stated)
- emission maximum (in Cc1ccccc1): 606 nm

- emission maximum (in ClC(Cl)Cl): 710 nm
SMILES: CCCCCCCCCCOc1cc(OCCCCCCCCCC)cc(C2=C3C(/C=C/c4ccc(OC)cc4)=CC(/C=C/c4ccc(OC)cc4)=[N+]3[B-](F)(F)n3c(/C=C/c4ccc(OC)cc4)cc(C=Cc4ccc(OC)cc4)c32)c1

- emission maximum (in CC#N): 474 nm
- emission maximum (in CCCCCC): 376 nm
- emission maximum (in CO): 377 nm
- emission maximum (in ClC(Cl)Cl): 452 nm
SMILES: c1ccc2cc3cc(-c4cc(-c5nccs5)nc(-c5nccs5)c4)ccc3cc2c1

- emission maximum (in CC#N): 480 nm
- emission maximum (in O): 534 nm
SMILES: Nc1cccc2ncccc12

- emission maximum (in CC#N): 332 nm
- emission maximum (in CCOC(C)=O): 326 nm
- emission maximum (in CO): 337 nm
SMILES: COC(=O)C[C@H](Cc1c[nH]c2ccccc12)NC(=O)[C@H](CC(=O)N[C@@H](CC1=CCc2ccccc21)C(=O)OC)NC(=O)OC(C)(C)C

- emission maximum (in C1CCCCC1): 399.14 nm
- emission maximum (in CC#N): 402.78 nm
- emission maximum (in ClCCl): 408.25 nm
SMILES: c1ccc2c(-c3ccc4sc5ccc(-c6c7ccccc7cc7ccccc67)cc5c4c3)c3ccccc3cc2c1

SMILES: N#Cc1cc(-n2c3ccccc3c3ccccc32)c(-n2c3ccccc3c3ccccc32)cc1C#N
- emission maximum (in C1CCOC1): 501 nm
- emission maximum (in Cc1ccccc1): 473 nm
- emission maximum (in c1ccc2c(c1)c1ccccc1n2-c1ccc(-c2ccc(-n3c4ccccc4c4ccccc43)cc2)cc1): 474 nm

SMILES: COc1ccc(/C=C/C2=CC(/C=C/c3ccc(OC)c4ccccc34)=[O+][B-](F)(F)O2)c2ccccc12
- emission maximum (in CC#N): 651 nm
- emission maximum (in CC(C)=O): 622 nm
- emission maximum (in CCOC(C)=O): 590 nm
- emission maximum (in CCOCC): 587 nm
- emission maximum (in ClC(Cl)(Cl)Cl): 561 nm
- emission maximum (in ClCCl): 616 nm

- emission maximum (in CS(C)=O): 565 nm
SMILES: CCCCN1/C(=C/C=C/C2=[N+](C)c3ccccc3C2(C)C)C(C)(C)c2ccccc21

- emission maximum (in ClCCl): 559 nm
SMILES: Clc1nnc(Oc2ccc(N(c3ccc(Br)cc3)c3ccc(Br)cc3)cc2)nn1

- emission maximum (in CO): 456 nm
- emission maximum (in ClCCl): 440 nm
SMILES: CCCCCCN(CCCCCC)c1ccc(C#Cc2ccc(C(F)(F)F)cc2)cc1

- emission maximum (in O): 554 nm
SMILES: CC(C)c1cc(N(C)C)c(C#N)c2c1-c1cccc3cccc-2c13

- emission maximum (in C1CCOC1): 627 nm
SMILES: CCCCCCc1ccsc1-c1cc2c3cc(-c4sccc4CCCCCC)c4nc(C(F)(F)C(F)(F)C(F)(F)F)nc5c(-c6sccc6CCCCCC)cc(c6cc(-c7sccc7CCCCCC)c7nc(C(F)(F)C(F)(F)C(F)(F)F)nc1c7c26)c3c45

SMILES: Cc1ccc(-n2c(-c3ccccc3N)nc3c4ccccc4c4ccccc4c32)cc1
- emission maximum (in Cc1ccccc1): 396 nm

SMILES: CCc1c(C)[nH]c(C2=[N+]3C(=Cc4c(C)c(CC)c(C)n4[B-]3(F)F)c3ccccc32)c1C
- emission maximum (in C1CCOC1): 644 nm
- emission maximum (in CC#N): 643 nm
- emission maximum (in CCCCCC): 641 nm
- emission maximum (in CO): 642 nm
- emission maximum (in Cc1ccccc1): 651 nm
- emission maximum (in ClCCl): 650 nm

- emission maximum (in C1CCCCC1): 424 nm
- emission maximum (in CC#N): 568 nm
- emission maximum (in CC(C)O): 580.16 nm
- emission maximum (in CO): 622 nm
- emission maximum (in CS(C)=O): 563.56 nm
- emission maximum (in ClC(Cl)Cl): 505 nm
- emission maximum (in c1ccccc1): 472.87 nm
SMILES: CC(=O)c1ccc(-c2nc3ccc(N(C)C)c(Br)c3s2)cc1

- emission maximum (in C1CCCCC1): 390 nm
- emission maximum (in CO): 430 nm
SMILES: N#C/C(=C\c1ccc(Cl)cc1)c1nc2ccccc2s1

- emission maximum (in CO): 652 nm
- emission maximum (in CS(C)=O): 664 nm
- emission maximum (in O): 653 nm
SMILES: CCCN1/C(=C/C=C(/C=C/C2=[N+](CCC)c3ccccc3C2(C)C)c2ccc3ccccc3n2)C(C)(C)c2ccccc21

- emission maximum (in ClCCl): 439 nm
SMILES: CC(C)(C)c1cc(C#Cc2ccc3c(C#Cc4cc(C(C)(C)C)cc(C(C)(C)C)c4)cc4c5cc(C#Cc6cc(C(C)(C)C)cc(C(C)(C)C)c6)ccc5c(C#Cc5cc(C(C)(C)C)cc(C(C)(C)C)c5)cc4c3c2)cc(C(C)(C)C)c1

- emission maximum (in C1CCOC1): 621 nm
- emission maximum (in CCCCCC): 520 nm
- emission maximum (in ClCCl): 638 nm
- emission maximum (in c1ccccc1): 580 nm
SMILES: O=C1OC(=O)c2ccc(N(c3ccccc3)c3ccc4ccccc4c3)c3cccc1c23

- emission maximum (in CCO): 580 nm
- emission maximum (in O): 594 nm
SMILES: O=C(O)COc1cccc(OCC(=O)O)c1-c1c2ccc(=[N+]3CCCCC3)cc-2oc2cc(N3CCCCC3)ccc12

- emission maximum (in ClC(Cl)Cl): 823 nm
SMILES: CN(C)c1ccc(C2=[N+]3C(=Nc4c(-c5ccccc5)cc(-c5ccc(N(C)C)cc5)n4[B-]3(F)F)C(c3ccccc3)=C2)cc1

SMILES: CCCCCCC1(CCCCCC)c2cc(-c3nc(-c4ccc5c(c4)C(CCCCCC)(CCCCCC)c4cc(N6c7ccccc7Oc7ccccc76)ccc4-5)nc(-c4ccc5c(c4)C(CCCCCC)(CCCCCC)c4cc(N6c7ccccc7Oc7ccccc76)ccc4-5)n3)ccc2-c2ccc(N3c4ccccc4Oc4ccccc43)cc21
- emission maximum (in C1CCOC1): 616 nm
- emission maximum (in CCCCCC): 485 nm
- emission maximum (in Cc1ccccc1): 525 nm
- emission maximum (in ClCCl): 621 nm

- emission maximum (in CCOC(C)=O): 398 nm
SMILES: c1cc2ccc3cc4[nH]ccc4c4ccc(c1)c2c34

SMILES: CSc1nc(-c2ccc(-n3c4ccccc4c4ccccc43)cc2)cc(-c2ccc(-n3c4ccccc4c4ccccc43)cc2)n1
- emission maximum (in C1CCOC1): 447 nm
- emission maximum (in CN(C)C=O): 497 nm
- emission maximum (in Cc1ccccc1): 410 nm
- emission maximum (in ClC(Cl)Cl): 446 nm

SMILES: C#CCNC1=C2C(C)=CC(C)=[N+]2[B-](F)(F)n2c(C)cc(C)c21
- emission maximum (in C1CCCCC1): 501.5 nm
- emission maximum (in CC(C)=O): 496 nm
- emission maximum (in CCOC(C)=O): 497 nm
- emission maximum (in CO): 496 nm
- emission maximum (in OCC(F)(F)F): 494.5 nm

Source: the Deep4Chem optical property database
